From patent US20210189444A1, “METHOD OF PURIFYING CANNABINOIDS FROM YEAST FERMENTATION BROTH” (Demetrix, Inc., priority 2019, published 2021)

Test: solubility of CBGA and CBG in water as a function of pH (solubility curves, FIG. 4)

With `CCCCCc1cc(O)c(C/C=C(\C)CCC=C(C)C)c(O)c1C(=O)O` [CBGA, cannabigerolic acid] the “solubility in aqueous phase” value (pH 11.5 (25% KOH), water:IPM 4:1) was “soluble” and the solubility in water (pH <2) was “insoluble”.
